Assay results as given in US6822003B2, “Aldose reductase inhibitor and process for preparation thereof” (Council of Scientific and Industrial Research, priority 2001, dated 2004).

Tests used:
solubility in solvents = assay type: physicochemical
[1] = molecular target: rat lens aldose reductase (Rattus norvegicus, UniProt P07943); experiment: rat lens aldose reductase inhibition, decrease in absorbence at 340 nm; assay type: biochemical; conditions: DL-glyceraldehyde substrate, 25° C., pH 7.0; read-out: IC50 against rat lens aldose reductase inhibitory activity
Protocol: Lens were collected from rat eyes and homogenized with sodium, potassium phosphate buffer (0.135 M, pH 7.0) containing 0.5 mM of phenyl methyl sulphonyl fluoride and 10 mM of β-mercaptoethanol. The homogenate was centrifuged at 10,000 r.p.m for 30 minutes at 4° C. The supernatant was taken as enzyme source. Enzyme reaction was carried out at 25° C. in a quartz cuvette with a 1 cm light path. The assay mixture contained 100 μL of nicotinamide adenine dinucleotide phosphate tetra sodium salt (from a stock solution of 9.6 mM), 100 μL of DL-glyceraldehyde (from a stock solution of 250 mM), 10 μL of inhibitor dissolved in dimethyl sulphoxide, sodium-potassium-phosphate buffer (0.135 M, pH 7.0) to make up the total volume to 3 mL and the reaction was initiated by the addition of 200 μL of enzyme solution. The enzyme reaction was monitored by the decrease in absorbence at 340 nm and compared with enzyme reaction without inhibitor.

diabetic rats = conditions: via an intragastric tube, compared with ONO-2235; cited from earlier work

solubility in chloroform and hexane (solubility in solvents; chloroform and hexane)	solubility in methanol, ethyl acetate, dimethyl sulphoxide, diethyl ether, sodium bicarbonate, sodium carbonate and sodium hydroxide solution (solubility in solvents; organic solvents and alkaline solutions)	solubility in water (solubility in solvents; water)	IC50 [1] [µM]	SMILES	suppression of sorbitol accumulation in the red blood cells, the sciatic nerve, and the lens (diabetic rats)
slightly soluble	soluble	insoluble	26.2	CCCCCCOc1cc(O)cc2c1C(=O)C(O)=CC2=O [Compound 1, 2, 6, dihydroxy, 8, hexoxy, 1, 4, naphthaquinone]	
				O=C(/C=C/c1ccc(O)cc1)c1ccc(O)cc1O [Isoliquiritigenin, isoliquiritigenin]	suppressed sorbitol accumulation in the red blood cells, the sciatic nerve, and the lens as effectively as ONO-2235
